For 22 molecules, IC50 results are on record in patent publication US10479795B2 (Incyte Corporation, priority 2016, dated 2019).

Molecules are shown by their SMILES. Where a name gives a salt, the structure may show the parent alone. Read-outs that look alike come from different tables or passages of the source.

The test system of experiment [1] is Phosphorylated Ribosomal Protein S6 (RPS6). The experiment is described as follows: THP-1 RPS6 ELISA Assay. It counts as cell-based, Human. The conditions noted are these: THP-1 cells, read-out: PI3Kγ_THP1_RPS6_ELISA IC50. In outline: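 Serum-starved THP-1 cells were preincubated with a concentration range of compound for 2 h at 37 °C, then stimulated with 10 nM MCP-1 for 15 min. Phospho-RPS6 in lysates was quantified by ELISA at 450 nm. IC50 came from percent inhibition versus log inhibitor concentration.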
(In general: ELISA stands for enzyme-linked immunosorbent assay.)

For experiment [2], the target named is PI3Kγ (p110γ) Recombinant Human Protein (Homo sapiens (Human), UniProt P48736). In words: PI3K-γ Scintillation Proximity Assay. The class given is biochemical. The note with it: read-out: PI3Kγ IC50. Put shortly:
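Recombinant human p110γ assayed at room temperature in 20 mM MOPS pH 6.7, 10 mM MgCl2, 5 mM DTT, 0.03% CHAPS, 2% DMSO, with 20 μM PIP2 and 2 μM ATP plus [γ-33P]ATP. Product captured on WGA SPA beads overnight and counted; IC50 fitted from % of solvent-control activity versus log inhibitor concentration.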
Background: SPA uses beads or plates that emit light when radiolabelled molecules are held near them.

Experiment [3] deals with PI3Kδ (p110δ/p85α) Recombinant Human Protein (Homo sapiens (Human), UniProt O00329). The experiment is described as follows: PI3Kδ Scintillation Proximity Assay. It counts as biochemical. In outline:
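Recombinant human p110δ/p85α (3.4 nM) with 20 μM PIP2 and 2 μM ATP plus [γ-33P]ATP, in 20 mM MOPS pH 6.7, 10 mM MgCl2, 5 mM DTT, 0.03% CHAPS, 2% DMSO; 120 min at room temperature. Product captured on WGA SPA beads, scintillation counted; IC50 from percent-of-control curves.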

Sequence of PI3Kδ (p110δ/p85α) Recombinant Human Protein (O00329 whole entry): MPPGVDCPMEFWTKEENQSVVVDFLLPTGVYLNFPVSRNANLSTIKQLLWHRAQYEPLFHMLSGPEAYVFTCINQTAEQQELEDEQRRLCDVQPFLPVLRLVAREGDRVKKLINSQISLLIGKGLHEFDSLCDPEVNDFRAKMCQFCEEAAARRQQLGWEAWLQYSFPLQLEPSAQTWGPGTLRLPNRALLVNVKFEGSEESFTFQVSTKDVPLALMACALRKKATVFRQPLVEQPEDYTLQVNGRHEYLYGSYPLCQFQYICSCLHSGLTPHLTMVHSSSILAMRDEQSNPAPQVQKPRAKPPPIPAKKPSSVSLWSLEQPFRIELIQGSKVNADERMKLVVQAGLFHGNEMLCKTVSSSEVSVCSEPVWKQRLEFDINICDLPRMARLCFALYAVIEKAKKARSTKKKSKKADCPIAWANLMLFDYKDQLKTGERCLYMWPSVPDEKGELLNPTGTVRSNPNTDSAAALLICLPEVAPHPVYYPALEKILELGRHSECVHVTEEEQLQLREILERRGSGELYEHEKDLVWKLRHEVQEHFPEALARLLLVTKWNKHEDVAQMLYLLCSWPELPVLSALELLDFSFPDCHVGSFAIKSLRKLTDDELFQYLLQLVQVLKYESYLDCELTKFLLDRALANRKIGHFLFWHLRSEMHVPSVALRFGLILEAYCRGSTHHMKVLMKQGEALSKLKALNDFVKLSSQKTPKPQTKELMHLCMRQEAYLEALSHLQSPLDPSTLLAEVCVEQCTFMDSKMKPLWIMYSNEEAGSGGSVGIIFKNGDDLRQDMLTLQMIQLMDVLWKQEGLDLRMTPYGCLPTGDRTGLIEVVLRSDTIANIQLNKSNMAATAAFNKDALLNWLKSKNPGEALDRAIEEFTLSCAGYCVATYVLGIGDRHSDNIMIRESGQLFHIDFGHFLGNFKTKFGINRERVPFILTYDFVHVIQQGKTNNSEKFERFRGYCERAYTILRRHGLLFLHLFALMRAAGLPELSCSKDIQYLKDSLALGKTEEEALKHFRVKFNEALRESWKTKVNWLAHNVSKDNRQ
Sequence of PI3Kδ (p110δ/p85α) Recombinant Human Protein (P27986 whole entry partner): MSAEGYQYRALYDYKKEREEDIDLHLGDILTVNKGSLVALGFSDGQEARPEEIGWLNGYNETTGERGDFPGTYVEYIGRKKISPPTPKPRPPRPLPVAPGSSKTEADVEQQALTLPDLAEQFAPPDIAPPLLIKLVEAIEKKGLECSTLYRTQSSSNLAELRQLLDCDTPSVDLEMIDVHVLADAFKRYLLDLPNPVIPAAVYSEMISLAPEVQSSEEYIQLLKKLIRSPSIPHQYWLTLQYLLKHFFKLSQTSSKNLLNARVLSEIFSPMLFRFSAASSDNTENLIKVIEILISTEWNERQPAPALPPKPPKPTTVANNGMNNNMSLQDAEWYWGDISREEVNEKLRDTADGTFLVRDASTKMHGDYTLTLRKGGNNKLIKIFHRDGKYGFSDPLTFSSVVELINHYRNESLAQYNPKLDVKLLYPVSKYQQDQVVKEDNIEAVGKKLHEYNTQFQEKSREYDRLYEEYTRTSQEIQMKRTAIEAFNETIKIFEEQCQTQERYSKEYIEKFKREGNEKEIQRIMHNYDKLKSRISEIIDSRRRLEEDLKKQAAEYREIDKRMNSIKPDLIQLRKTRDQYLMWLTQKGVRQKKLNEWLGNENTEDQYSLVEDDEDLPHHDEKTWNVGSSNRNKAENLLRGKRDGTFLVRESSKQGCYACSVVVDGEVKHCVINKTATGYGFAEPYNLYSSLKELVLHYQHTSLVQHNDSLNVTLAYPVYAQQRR
Sequence of PI3Kγ (p110γ) Recombinant Human Protein (P48736 whole entry): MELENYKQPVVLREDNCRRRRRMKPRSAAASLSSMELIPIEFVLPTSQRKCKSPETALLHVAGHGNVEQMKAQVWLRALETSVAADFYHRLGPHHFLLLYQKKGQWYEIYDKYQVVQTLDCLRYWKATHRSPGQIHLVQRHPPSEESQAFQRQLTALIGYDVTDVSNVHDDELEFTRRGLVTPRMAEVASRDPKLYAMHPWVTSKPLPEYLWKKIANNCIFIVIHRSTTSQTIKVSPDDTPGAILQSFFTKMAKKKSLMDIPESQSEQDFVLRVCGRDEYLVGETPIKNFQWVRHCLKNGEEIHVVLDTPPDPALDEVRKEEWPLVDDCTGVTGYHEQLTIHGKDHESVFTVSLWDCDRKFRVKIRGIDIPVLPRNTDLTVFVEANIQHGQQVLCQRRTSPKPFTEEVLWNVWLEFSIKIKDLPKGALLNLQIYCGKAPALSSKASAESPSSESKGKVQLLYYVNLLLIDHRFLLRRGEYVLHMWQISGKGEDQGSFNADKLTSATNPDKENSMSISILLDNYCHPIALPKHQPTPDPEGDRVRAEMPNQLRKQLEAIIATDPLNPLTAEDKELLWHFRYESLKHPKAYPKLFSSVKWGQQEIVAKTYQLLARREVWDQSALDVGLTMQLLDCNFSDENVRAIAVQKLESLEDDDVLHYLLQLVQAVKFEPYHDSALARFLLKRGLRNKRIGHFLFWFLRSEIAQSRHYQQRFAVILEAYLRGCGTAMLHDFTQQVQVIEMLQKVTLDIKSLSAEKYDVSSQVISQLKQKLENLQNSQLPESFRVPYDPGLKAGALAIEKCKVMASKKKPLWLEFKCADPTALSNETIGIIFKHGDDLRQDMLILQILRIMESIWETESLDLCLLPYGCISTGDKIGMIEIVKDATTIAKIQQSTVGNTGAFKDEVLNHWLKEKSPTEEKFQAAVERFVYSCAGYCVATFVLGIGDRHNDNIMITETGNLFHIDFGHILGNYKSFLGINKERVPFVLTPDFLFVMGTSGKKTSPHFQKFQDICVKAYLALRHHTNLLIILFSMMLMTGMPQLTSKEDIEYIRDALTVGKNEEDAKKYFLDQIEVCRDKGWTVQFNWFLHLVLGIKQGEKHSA

With `Cc1ccc(S(=O)(=O)N[C@H]2CC[C@H](O)CC2)cc1-c1cnc2c(N)nc(-c3ccc(C(=O)N(C)C)cc3F)cn12` [Example 79, 4-[8-Amino-3-(5-{[(trans-4-hydroxycyclohexyl)amino]sulfonyl}-2-methylphenyl)imidazo[1,2-a]pyrazin-6-yl]-3-fluoro-N,N-dimethylbenzamide trifluoroacetate], the results for the IC50 in experiment [1] (Homo sapiens), in experiment [2] and in experiment [3] were 100 to 500 nM, under 100 nM and under 100 nM, respectively.

Take `Cc1ccc(S(=O)(=O)N[C@H]2CC[C@H](O)CC2)cc1-c1cnc2c(N)nc(-c3cc(C(F)(F)F)nn3C)cn12` [Example 80, 3-{8-Amino-6-[1-methyl-3-(trifluoromethyl)-1H-pyrazol-5-yl]imidazo[1,2-a]pyrazin-3-yl}-N-(trans-4-hydroxycyclohexyl)-4-methylbenzenesulfonamide]: the IC50 in experiment [1] (Homo sapiens) was 100 to 500 nM; in experiment [2], under 100 nM; in experiment [3], 100 to 500 nM.

Turning to `Cc1ccc(S(=O)(=O)N[C@H]2CC[C@H](O)CC2)cc1-c1cnc2c(N)nc(-c3ccncc3F)cn12` [Example 81, 3-[8-Amino-6-(3-fluoropyridin-4-yl)imidazo[1,2-a]pyrazin-3-yl]-N-(trans-4-hydroxycyclohexyl)-4-methylbenzenesulfonamide], the IC50 in experiment [1] (Homo sapiens), in experiment [2] and in experiment [3] was under 100 nM throughout.

On to `Cc1ccc(S(=O)(=O)N[C@H]2CC[C@H](O)CC2)cc1-c1cnc2c(N)nc(-c3ccc(C(C)O)cc3F)cn12` (stereo partly drawn) [Example 82, 3-(8-Amino-6-(2-fluoro-4-(1-hydroxyethyl)phenyl)imidazo[1,2-a]pyrazin-3-yl)-N-(trans-4-hydroxycyclohexyl)-4-methylbenzenesulfonamide], for which the IC50 in experiment [1] (Homo sapiens), in experiment [2] and in experiment [3] was under 100 nM throughout.

As for `COc1cc(C)c(-c2cnc3c(N)nccn23)cc1S(=O)(=O)N[C@H]1CC[C@H](O)CC1` [Example 83, 5-(8-aminoimidazo[1,2-a]pyrazin-3-yl)-N-(trans-4-hydroxycyclohexyl)-2-methoxy-4-methylbenzenesulfonamide], the IC50 in experiment [1] (Homo sapiens) is over 1000 nM; in experiment [2] it was 100 to 500 nM; in experiment [3], under 100 nM.

On to `Cc1ccc(S(=O)(=O)NC2CCC(F)(F)CC2)cc1-c1cnc2c(N)nccn12` [Example 84, 3-(8-amionimidazo[1,2-a]pyrazin-3-yl)-N-(4,4-difluorocyclohexyl)-4-methylbenzenesulfonamide], for which the results for the 50% inhibitory concentration (IC50) in experiment [1], in experiment [2] and in experiment [3] were over 1000 nM, under 100 nM and 500 to 2000 nM, respectively.

Take `Cc1ccc(S(=O)(=O)NC2CCC(C)(O)CC2)cc1-c1cnc2c(N)nccn12` (stereo not drawn) [Example 85, 3-(8-aminoimidazo[1,2-a]pyrazin-3-yl)-N-(trans-4-hydroxy-4-methylcyclohexyl)-4-methylbenzenesulfonamide]: the results for the IC50 in experiment [1], in experiment [2] and in experiment [3] were 100 to 500 nM, under 100 nM and 500 to 2000 nM, respectively.

As to `Cc1ccc(S(=O)(=O)NCC2CCN(C(=O)C3CC3)CC2)cc1-c1cnc2c(N)nccn12` [Example 86, 3-(8-aminoimidazo[1,2-a]pyrazin-3-yl)-N-((1-(cyclopropanecarbonyl)piperidin-4-yl)methyl)-4-methylbenzenesulfonamide], the 50% inhibitory concentration (IC50) in experiment [1] is over 1000 nM; in experiment [2], under 100 nM; in experiment [3] it was 500 to 2000 nM.

Turning to `Cc1ccc(S(=O)(=O)N[C@H]2C[C@](C)(C#N)C2)cc1-c1cnc2c(N)ncnn12` [Example 87, 3-(4-Aminoimidazo[1,2-f][1,2,4]triazin-7-yl)-N-((1r,3r)-3-cyano-3-methylcyclobutyl)-4-methylbenzenesulfonamide trifluoroacetate salt], the concentration for half-maximal inhibition (IC50) in experiment [1] was 100 to 500 nM; in experiment [2] it was under 100 nM; in experiment [3] it was 100 to 500 nM.

For the molecule `COC(=O)C12CC(NS(=O)(=O)c3ccc(C)c(-c4cnc5c(N)ncnn45)c3)(C1)C2` [Example 88, Methyl 3-(3-(4-aminoimidazo[1,2-f][1,2,4]triazin-7-yl)-4-methylphenylsulfonamido)bicyclo[1.1.1]pentane-1-carboxylate trifluoroacetate salt], the values for the half-inhibitory concentration (IC50) in experiment [1], in experiment [2] and in experiment [3] were under 100 nM, under 100 nM and 100 to 500 nM, respectively.

Turning to `Cc1ccc(S(=O)(=O)N[C@H]2C[C@H](C#N)C2)cc1-c1cnc2c(N)ncnn12` [Example 89, 3-(4-Aminoimidazo[1,2-f][1,2,4]triazin-7-yl)-N-((1r,3r)-3-cyanocyclobutyl)-4-methylbenzenesulfonamide trifluoroacetate salt], the values for the half-inhibitory concentration (IC50) in experiment [1], in experiment [2] and in experiment [3] were under 100 nM, under 100 nM and 100 to 500 nM, respectively.

As for `Cc1ccc(S(=O)(=O)NC23CCC(C#N)(CC2)C3)cc1-c1cnc2c(N)ncnn12` [Example 90, 3-(4-Aminoimidazo[1,2-f][1,2,4]triazin-7-yl)-N-(4-cyanobicyclo[2.2.1]heptan-1-yl)-4-methylbenzenesulfonamide trifluoroacetate salt], the figures for the half-inhibitory concentration (IC50) in experiment [1], in experiment [2] and in experiment [3] were under 100 nM, under 100 nM and 100 to 500 nM, respectively.

Turning to `Cc1ccc(S(=O)(=O)NC23CC(CC#N)(C2)C3)cc1-c1cnc2c(N)ncnn12` [Example 91, trifluoroacetate salt], the results for the IC50 in experiment [1], in experiment [2] and in experiment [3] were 100 to 500 nM, under 100 nM and 100 to 500 nM, respectively.

Regarding `Cc1ccc(S(=O)(=O)NC23CC(Cn4cccn4)(C2)C3)cc1-c1cnc2c(N)ncnn12` [Example 92, N-(3-((1H-pyrazol-1-yl)methyl)bicyclo[1.1.1]pentan-1-yl)-3-(4-aminoimidazo[1,2-f][1,2,4]triazin-7-yl)-4-methylbenzenesulfonamide trifluoroacetate salt], the 50% inhibitory concentration (IC50) was under 100 nM in experiment [1], under 100 nM in experiment [2] and 100 to 500 nM in experiment [3].

For `Cc1ccc(S(=O)(=O)NC23CC(C(C)(C)O)(C2)C3)cc1-c1cnc2c(N)ncnn12` [Example 93, 3-(4-Aminoimidazo[1,2-f][1,2,4]triazin-7-yl)-N-(3-(2-hydroxypropan-2-yl)bicyclo[1.1.1]pentan-1-yl)-4-methylbenzenesulfonamide trifluoroacetate slt], the IC50 is 100 to 500 nM in experiment [1], under 100 nM in experiment [2] and 100 to 500 nM in experiment [3].

`Cc1noc(C23CC(NS(=O)(=O)c4ccc(C)c(-c5cnc6c(N)ncnn56)c4)(C2)C3)n1` [Example 94, 3-(4-Aminoimidazo[1,2-f][1,2,4]triazin-7-yl)-4-methyl-N-(3-(3-methyl-1,2,4-oxadiazol-5-yl)bicyclo[1.1.1]pentan-1-yl)benzenesulfonamide trifluoroacetate salt]: the results for the IC50 in experiment [1], in experiment [2] and in experiment [3] were 500 to 1000 nM, under 100 nM and 100 to 500 nM, respectively.

Regarding `CC(=O)C12CC(NS(=O)(=O)c3ccc(C)c(-c4cnc5c(N)ncnn45)c3)(C1)C2` [Example 95, N-(3-Acetylbicyclo[1.1.1]pentan-1-yl)-3-(4-aminoimidazo[1,2-f][1,2,4]triazin-7-yl)-4-methylbenzenesulfonamide trifluoroacetate salt], the IC50 was 100 to 500 nM in experiment [1], under 100 nM in experiment [2] and 100 to 500 nM in experiment [3].

As for `Cc1ccc(S(=O)(=O)NC23CC(C(=O)N(C)C)(C2)C3)cc1-c1cnc2c(N)ncnn12` [Example 96, 3-(3-(4-Aminoimidazo[1,2-f][1,2,4]triazin-7-yl)-4-methylphenylsulfonamido)-N,N-dimethylbicyclo[1.1.1]pentane-1-carboxamide trifluoroacetate salt], the results for the half-inhibitory concentration (IC50) in experiment [1], in experiment [2] and in experiment [3] were over 1000 nM, under 100 nM and 100 to 500 nM, respectively.

As for `Cc1ccc(S(=O)(=O)NC23CC(C(F)(F)F)(C2)C3)cc1-c1cnc2c(N)ncnn12` [Example 97, 3-(4-Aminoimidazo[1,2-f][1,2,4]triazin-7-yl)-4-methyl-N-(3-(trifluoromethyl)bicyclo[1.1.1]pentan-1-yl)benzenesulfonamide trifluoroacetate salt], the IC50 in experiment [1] is 100 to 500 nM; in experiment [2], under 100 nM; in experiment [3] it was 100 to 500 nM.

Consider `Cc1ccc(S(=O)(=O)NC23CC(F)(C2)C3)cc1-c1cnc2c(N)ncnn12` [Example 98, 3-(4-Aminoimidazo[1,2-f][1,2,4]triazin-7-yl)-N-(3-fluorobicyclo[1.1.1]pentan-1-yl)-4-methylbenzenesulfonamide trifluoroacetate salt], for which the results for the IC50 in experiment [1], in experiment [2] and in experiment [3] were 100 to 500 nM, under 100 nM and 500 to 2000 nM, respectively.

With `Cc1ccc(S(=O)(=O)NC23CC(c4nnn[nH]4)(C2)C3)cc1-c1cnc2c(N)ncnn12` [Example 99, N-(3-(1H-tetrazol-5-yl)bicyclo[1.1.1]pentan-1-yl)-3-(4-aminoimidazo[1,2-f][1,2,4]triazin-7-yl)-4-methylbenzenesulfonamide trifluoroacetate salt], the IC50 in experiment [1] is over 1000 nM; in experiment [2], under 100 nM; in experiment [3], 500 to 2000 nM.

Take `Cc1ccc(S(=O)(=O)NC2CCOC2C)cc1-c1cnc2c(N)ncnn12` (stereo not drawn) [Example 100, 3-(4-Aminoimidazo[1,2-f][1,2,4]triazin-7-yl)-4-methyl-N-(2-methyltetrahydrofuran-3-yl)benzenesulfonamide trifluoroacetate salt]: the IC50 in experiment [1] is 500 to 1000 nM; in experiment [2] it was under 100 nM; in experiment [3] it was 500 to 2000 nM.

As usually defined, the IC50 is the concentration at which inhibition is half-maximal.
